Test results from patent US20080293814A1, “CONCENTRATE ESMOLOL” (priority 2007, published 2008).
Where a name gives a salt, the structure may show the parent alone.

Assay: pH dependence of esmolol degradation in solution
Assay type: physicochemical
Description: While lower concentration (e.g., 10 mg/ml) ready-to-use compositions of esmolol require an additional buffer to maintain pH, higher concentrations of esmolol in the present invention compositions, provide self-buffering capacity to the composition. […] The concentrate can include a pharmaceutically acceptable buffer to aid in maintaining the pH in a range of from about 3.5 to about 7.0. Preferably, the pH is maintained between about 4.5 and about 5.5, more preferably between 4.9 and 5.1.

pH at which esmolol is most stable: about 5.0
SMILES: COC(=O)CCc1ccc(OCC(O)CNC(C)C)cc1 (stereo not shown) [esmolol, methyl-3-[4-(2-hydroxy-3-isopropylamino)propoxy]phenylpropionate hydrochloride]
